Where two headings read alike, the source gives them in different places.
Experiments:
CYP1A2 = CYP1A2 (Homo sapiens (Human), UniProt P05177); assay: CYP inhibition test, 7-ethoxyresorufin O-deethylation; type: in vitro ADME; details: pooled human hepatic microsome, 0.5 μmol/L ethoxyresorufin
From the text: (§1) Using commercially available pooled human hepatic microsome, and employing, as markers, 7-ethoxyresorufin O-deethylation (CYP1A2), tolbutamide methyl-hydroxylation (CYP2C9), mephenyloin 4′-hydroxylation (CYP2C19), dextromethorphan O-demethylation (CYP2D6), and terfenedine hydroxylation as typical substrate metabolism reactions of human main five CYP enzyme forms (CYP1A2, 2C9, 2C19, 2D6, 3A4), an inhibitory degree of each metabolite production amount by a compound of the present compound was assessed.
(§2) The reaction conditions were as follows: substrate, 0.5 μmol/L ethoxyresorufin (CYP1A2), 100 μmol/L tolbutamide (CYP2C9), 50 μmol/L S-mephenyloin (CYP2C19), 5 μmol/L dextromethorphan (CYP2D6), 1 μmol/L terfenedine (CYP3A4); reaction time, 15 minutes; reaction temperature, 37° C.; enzyme, pooled human hepatic microsome 0.2 mg protein/mL; concentration of a compound of the present invention, 1, 5, 10, 20 μmol/L (four points).
(§3) Each five kinds of substrates, human hepatic microsome, or a compound of the present invention in 50 mM Hepes buffer as a reaction mixture was added to a 96-well plate at the composition as described above, NADPH, as a cofactor was added to initiate metabolism reactions as markers and. After the incubation at 37° C. for 15 minutes, a methanol/acetonitrile=1/1 (v/v) solution was added to stop the reaction. After the centrifugation at 3000 rpm for 15 minutes, resorufin (CYP1A2 metabolite) in the supernatant was quantified by a fluorescent multilabel counter and tolbutamide hydroxide (CYP2C9 metabolite), mephenyloin 4′ hydroxide (CYP2C19 metabolite), dextrorphan (CYP2D6 metabolite), and terfenadine alcohol (CYP3A4 metabolite) were quantified by LC/MS/MS.

[1] = target: CYP3A4 enzyme expressed in Escherichia coli (Homo sapiens (Human), UniProt P08684); assay: CYP3A4 fluorescent MBI test; type: in vitro ADME; details: pre-reaction time 0 or 30 minutes, substrate 7-BFC; read-out: CYP3A4 MBI, difference between IC50 values with and without preincubation
Description: The CYP3A4 fluorescent MBI test is a test of investigating enhancement of CYP3A4 inhibition of a compound by a metabolism reaction, and the test was performed using, as CYP3A4 enzyme expressed in Escherichia coli and employing, as an index, a reaction in which 7-benzyloxytrifluoromethylcoumarin (7-BFC) is debenzylated by the CYP3A4 enzyme to produce a metabolite, 7-hydroxytrifluoromethylcoumarin (HFC) emitting fluorescent light.
The reaction conditions were as follows: substrate, 5.6 μmol/L 7-BFC; pre-reaction time, 0 or 30 minutes; reaction time, 15 minutes; reaction temperature, 25° C. (room temperature); CYP3A4 content (expressed in Escherichia coli), at pre-reaction […], at reaction […] (at 10-fold dilution); concentration of a compound of the present, 0.625, 1.25, 2.5, 5, 10, 20 μmol/L (six points).
An enzyme in a K-Pi buffer (pH 7.4) and a compound solution of the present invention as a pre-reaction mixture were added to a 96-well plate at the composition of the pre-reaction, a part of it was transferred to another 96-well plate so that it was 1/10 diluted by a substrate in a K-Pi buffer, NADPH as a co-factor was added to initiate a reaction as an index (without preincubation) and, after a predetermined time of a reaction, acetonitrile/0.5 mol/L Tris(trishydroxyaminomethane)=4/1 (V/V) was added to stop the reaction. In addition, NADPH was added to a remaining preincubation solution to initiate a preincubation (with preincubation) and, after a predetermined time of a preincubation, a part was transferred to another plate so that it was 1/10 diluted with a substrate and a K-Pi buffer to initiate a reaction as an index. After a predetermined time of a reaction, acetonitrile/0.5 mol/L Tris(trishydroxyaminomethane)=4/1 (V/V) was added to stop the reaction. For the plate on which each index reaction had been performed, a fluorescent value of 7-HFC which is a metabolite was measured with a fluorescent plate reader. (Ex=420 nm, Em=535 nm).

CYP3A4 = CYP3A4 (Homo sapiens (Human), UniProt P08684); assay: CYP inhibition test, terfenedine hydroxylation; type: in vitro ADME; details: pooled human hepatic microsome, 1 μmol/L terfenedine
From the text: as §1, §2, §3

CRTH2 = CRTH2 (Homo sapiens (Human), UniProt Q9Y5Y4); assay: CRTH2 receptor binding inhibitory activity ([3H]-PGD2 displacement, membranes of CRTH2-expressing K562 cell); details: [3H]-PGD2 displacement, membrane of CRTH2-expressing K562 cell, read-out: Ki
How it was run: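 Incubation ran 60 min at room temperature using 20 μg/well membrane from CRTH2-expressing K562 cells in pH 7.4 Tris/HCl (50 mM) with 10 mM MgCl2.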

DP receptor = DP receptor (Homo sapiens (Human), UniProt Q13258); assay: DP inhibitory activity in human platelets (PGD2-induced cAMP increase in platelet rich plasma, HTRF); type: cell-based; details: IC50 of PGD2 (300 nM)-induced cAMP increase, read-out: PRP
Description: Thirty milliliter of blood was drown from healthy human into a syringe preloaded with 1/9 volume of 3.8% citrate sodium. The blood was centrifuged with 180 g for 10 min at room temperature and the upper plasma layer was collected as platelet rich plasma (PRP). The PRP was transferred to plate and treated with 3-isobutyl-1-methylxanthin (IBMX; […]) for 5 min. Then the compounds of the present invention were added to the plate and after 10 min, 300 nM of PGD2 was added. The reaction was stopped with 1 mmol/l hydrogenchlolide after 2 min of PGD2 addition, and platelet was lysed by adding 12% Triton X-100. The concentration of cAMP in the supernatant of the platelet lysate was quantified using homogenous time resolved fluorescence (HTRF). Inhibition ratio was defined by cAMP increase with and without compound, and […] for each compound was calculated from inhibitory curve.

[2] = CRTH2 receptor binding, categorized AAAA/AAA

Chain of CYP1A2 (P05177 whole entry): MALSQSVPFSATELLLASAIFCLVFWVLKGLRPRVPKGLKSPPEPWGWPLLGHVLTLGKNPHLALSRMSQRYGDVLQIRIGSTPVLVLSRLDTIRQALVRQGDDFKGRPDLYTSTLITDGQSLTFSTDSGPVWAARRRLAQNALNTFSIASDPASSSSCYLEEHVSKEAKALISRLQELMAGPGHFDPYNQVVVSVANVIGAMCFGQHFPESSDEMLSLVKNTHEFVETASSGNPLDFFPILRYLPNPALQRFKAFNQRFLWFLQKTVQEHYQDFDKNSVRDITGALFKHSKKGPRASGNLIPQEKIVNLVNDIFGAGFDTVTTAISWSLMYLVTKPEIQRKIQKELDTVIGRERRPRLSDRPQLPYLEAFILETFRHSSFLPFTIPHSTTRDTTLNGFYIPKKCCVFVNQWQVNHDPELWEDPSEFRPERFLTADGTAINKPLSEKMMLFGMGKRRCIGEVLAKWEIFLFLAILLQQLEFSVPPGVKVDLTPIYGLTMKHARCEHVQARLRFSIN
Chain of CYP3A4 enzyme expressed in Escherichia coli (P08684 whole entry): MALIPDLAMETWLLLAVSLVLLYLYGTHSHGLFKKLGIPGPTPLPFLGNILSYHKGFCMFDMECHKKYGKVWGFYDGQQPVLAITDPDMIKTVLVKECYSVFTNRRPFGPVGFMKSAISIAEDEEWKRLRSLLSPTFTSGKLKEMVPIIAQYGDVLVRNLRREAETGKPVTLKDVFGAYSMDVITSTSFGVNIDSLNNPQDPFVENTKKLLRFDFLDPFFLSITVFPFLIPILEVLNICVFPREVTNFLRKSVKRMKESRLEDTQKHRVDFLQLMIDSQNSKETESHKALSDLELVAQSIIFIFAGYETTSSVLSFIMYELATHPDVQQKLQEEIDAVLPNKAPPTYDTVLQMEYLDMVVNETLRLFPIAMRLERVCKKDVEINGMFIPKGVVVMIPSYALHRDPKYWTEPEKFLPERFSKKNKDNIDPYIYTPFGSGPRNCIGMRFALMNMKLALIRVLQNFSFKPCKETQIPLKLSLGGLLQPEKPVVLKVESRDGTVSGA
Chain of CYP3A4 (P08684 whole entry): as above
Chain of DP receptor (Q13258 whole entry): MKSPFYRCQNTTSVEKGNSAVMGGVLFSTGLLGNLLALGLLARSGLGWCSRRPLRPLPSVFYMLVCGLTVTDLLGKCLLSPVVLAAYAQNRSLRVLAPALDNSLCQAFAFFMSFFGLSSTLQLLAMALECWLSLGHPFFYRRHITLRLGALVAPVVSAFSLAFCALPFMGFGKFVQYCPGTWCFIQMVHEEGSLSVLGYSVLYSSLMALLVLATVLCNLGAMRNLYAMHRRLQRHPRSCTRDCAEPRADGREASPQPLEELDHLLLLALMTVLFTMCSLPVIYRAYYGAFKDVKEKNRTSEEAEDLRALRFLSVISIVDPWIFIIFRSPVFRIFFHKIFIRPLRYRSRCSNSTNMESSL
Chain of CRTH2 (Q9Y5Y4 whole entry): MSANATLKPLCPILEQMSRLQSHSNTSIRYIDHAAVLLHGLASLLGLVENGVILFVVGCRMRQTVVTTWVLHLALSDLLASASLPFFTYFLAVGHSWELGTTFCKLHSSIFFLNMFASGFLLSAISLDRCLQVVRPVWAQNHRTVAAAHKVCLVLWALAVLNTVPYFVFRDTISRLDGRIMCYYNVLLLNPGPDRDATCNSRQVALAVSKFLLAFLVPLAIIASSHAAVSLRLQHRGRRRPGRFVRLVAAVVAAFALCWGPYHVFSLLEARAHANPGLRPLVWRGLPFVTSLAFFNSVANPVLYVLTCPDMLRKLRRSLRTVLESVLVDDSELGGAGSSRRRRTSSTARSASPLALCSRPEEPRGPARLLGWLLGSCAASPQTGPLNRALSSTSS

Row | IC50 (CYP1A2) [nM] | difference in IC50 with vs without preincubation [1] [nM] | IC50 (CYP3A4) [nM] | Ki (CRTH2; [2]) [nM] | Ki (CRTH2) [nM] | IC50 (DP receptor) [nM] | SMILES
1 | > 20000 | ≤ 3000 | > 20000 | < 100 | 3.8 | – | CC(C)Oc1ccc(S(=O)(=O)N2C[C@@H](C)[C@@H](n3nc(CC(=O)O)c4ccc(F)cc43)C2)cn1 [Compound I-57]
2 | > 20000 | ≤ 3000 | > 20000 | – | 2.4 | 71 | CC(C)Oc1ccc(S(=O)(=O)N2C[C@@H](C)[C@@H](n3nc(CC(=O)O)c4ccc(F)cc43)C2)cc1 [Compound I-37]
3 | > 20000 | ≤ 3000 | > 20000 | < 100 | – | 26 | CC(C)Oc1ccc(S(=O)(=O)N2C[C@H](n3nc(CC(=O)O)c4ccc(F)cc43)C[C@H]2C#N)cc1 [Compound I-7]
4 | > 20000 | ≤ 3000 | > 20000 | < 100 | 37 | 68 | CCOc1ccc(S(=O)(=O)N2C[C@@H](C)[C@@H](n3nc(CC(=O)O)c4ccccc43)C2)cn1 [Compound I-96]
5 | > 20000 | ≤ 3000 | > 20000 | < 100 | 5.1 | – | CC(C)Oc1ccc(S(=O)(=O)N2C[C@@H](C)[C@@H](n3nc(CC(=O)O)c4ccc(F)cc43)C2)c(F)c1 [Compound I-52]
